Assay results from patent publication US20220289794A1, “SYNTHETIC ANTIMICROBIAL PEPTIDES” (priority 2019, published 2022).
Read-outs that look alike come from different tables or passages of the source. Positions of bridges follow the written chain, without caps; N, C: chain ends. Residues, ends and D or L forms follow the SMILES beside them.

Columns and labels:
[1] = system: Escherichia coli (E. Coli, ATCC 25922); conditions: ATCC 25922
[2] = system: Pseudomonas aeruginosa (PSA, ATCC 27883); conditions: ATCC 27883
[3] = system: Klebsiella pneumoniae (KPC, ATCC BAA-1705); conditions: ATCC BAA-1705
[4] = system: Methicillin-resistant Staphylococcus aureus MRSA (ATCC BAA-1556); conditions: ATCC BAA-1556
MRSA (ATCC BAA-1556) = conditions: MRSA (ATCC BAA-1556)
[5] = system: Klebsiella pneumoniae (KPC, ATCC BAA-1705); conditions: Klebsiella pneumoniae (ATCC BAA-1705)
[6] = system: Pseudomonas aeruginosa (PSA, ATCC 27883); assay: Synergy checkerboard assay (FIC index); format: cell-based; conditions: Pseudomonas aeruginosa (ATCC 27883)
[7] = system: Escherichia coli (E. Coli, ATCC 25922); conditions: Escherichia coli (ATCC 25922)
[8] = system: Escherichia coli (ATCC 25922); conditions: ATCC 25922
[9] = system: Klebsiella pneumoniae (ATCC BAA-1705); conditions: ATCC BAA-1705
[10] = system: Methicillin-resistant Staphylococcus aureus MRSA (ATCC BAA-1556); format: cell-based
Method: (§1) All bacteria pathogens tested clinically reported multi-drug resistant strains. The antibacterial activity was tested against Gram-negative strains namely; Pseudomonas aeruginosa (PSA), Klebsiella pneumoniae (KPC), Escherichia coli (E. coli) and Gram-positive Methicillin-resistant Staphylococcus aureus (MRSA). The minimum inhibitory concentration (MIC) is the lowest concentration of the antibiotic that inhibits microbial growths. MIC is determined by visual inspection or use of spectrophotometer plate reader to determine media turbidity. On the other hand, the minimum bactericidal concentration (MBC) is the lowest concentration that kills […] of bacterial growth. Cytotoxicity of peptides in the hepatic cell line, human skin fibroblast cell line, heart/myocardium cells, and human lung fibroblast cells is shown in FIGS. 36-46). […] (IFX-315)-Au-NP with antibiotics are shown in FIGS. 49-58 when the gold nanoparticles are formed by the peptide followed by addition of the antibiotic. […] (IFX-301) with antibiotics (1:1 ratio) first and then used in the synthesis of Au-NP in antibacterial activities is shown in FIGS. 59-68.
(§2) The MBC is identified by determining the lowest concentration of antibacterial agent that reduces the viability (concentration of peptides necessary to achieve a bactericidal effect) of the initial bacterial inoculum by ≥99.9%.

[11] = system: Pseudomonas aeruginosa (ATCC 27883); format: cell-based; conditions: ATCC 27883
Method: as §1, §2

[12] = system: Escherichia coli (ATCC 25922); format: cell-based
Method: as §1, §2

[13] = system: Pseudomonas aeruginosa (ATCC 27883); conditions: ATCC 27883
[14] = system: Methicillin-resistant Staphylococcus aureus MRSA (ATCC BAA-1556); conditions: ATCC BAA-1556; remark: listed apart in the source
[15] = format: in vivo; conditions: for Average Body Weight / Average Body Weight Growth Rate: Female (M40~M42)
Method: In-vivo toxicity study of IFX301. 1. Dose formulations were prepared freshly on dosing day. Doses started from the low to high levels and staggered with 4 h up to 24 h between doses with animals. A dose was escalated or decreased if the test compound appears to be generally tolerated well or not. The cage side observation was done twice daily. The clinical observation was conducted prior to randomization and dosing daily thereafter (at least hourly for the first 4 hours after dosing) and prior to termination for mortality, morbidity check, and clinical signs. Bodyweight was monitored prior to randomization and dosing, daily thereafter, and prior to termination. Gross necropsy was done for all scheduled animals on day 8. Full gross necropsy was conducted, this includes a macroscopic examination of the external surface of the body, all orifices, cranial cavity, the external surface of the brain and cut surfaces of the spinal cord, and the cranial, thoracic, abdominal and pelvic cavities and their viscera, cervical areas, carcass, and genitalia; The animal identification and selected tissues (sex appropriate) identified in Table 38 were sampled and preserved in 10% neutral buffered formalin (NBF). For unscheduled animals (found dead and moribund sacrificed animals): gross necropsy was conducted, and tissues were preserved for possible histology to determine the cause of death. Histopathology was done for adrenal glands, brain, cecum, colon, duodenum, heart, ileum, jejunum, kidneys, liver, rectum, spleen, stomach, thymus lung, pancreas and the testis (ovaries); total 16 tissues/mouse.

[16] = peptide part of FIC antibiotic/peptides, in combination with antibiotic
[17] = Average, ICR mice, IP, 25 mg/kg, Male (M49~M51)
[18] = Average, ICR mice, IP, 50 mg/kg, Male (M43~M45)
[19] = Female ICR mice, MTD study, IP route, 10 mg/kg & 5 mL/kg, M40~M42
[20] = Female ICR mice, MTD study, IP route, 25 mg/kg & 5 mL/kg, M52~M54
[21] = Female ICR mice, MTD study, IP route, 50 mg/kg & 5 mL/kg, M46~M48
[22] = Table 25, peptide in combination with antibiotics

N=C(N)NCCC[C@@H]1NC(=O)[C@H](CCCNC(=N)N)NC(=O)[C@H](CCCNC(=N)N)NC(=O)[C@H](CCCCN)NC(=O)[C@H](Cc2c[nH]c3ccccc23)NC(=O)[C@H](Cc2c[nH]c3ccccc23)NC(=O)[C@H](Cc2c[nH]c3ccccc23)NC(=O)[C@H](Cc2c[nH]c3ccccc23)NC(=O)[C@H](CCCNC(=N)N)NC(=O)[C@H](CCCNC(=N)N)NC1=O [[R4W5K] (IFX-315)] (cyclo(RRRRRWWWWK))
Escherichia coli (ATCC 25922) MIC [1]: 16 µg/mL
Pseudomonas aeruginosa (ATCC 27883) MIC [2]: 16 µg/mL
Klebsiella pneumoniae (ATCC BAA-1705) MIC [3]: 32 µg/mL
MRSA (ATCC BAA-1556) MIC [4]: 4 µg/mL

N=C(N)NCCC[C@@H]1NC(=O)[C@H](CCCNC(=N)N)NC(=O)[C@H](CCCNC(=N)N)NC(=O)[C@H](CCCNC(=N)N)NC(=O)[C@H](Cc2c[nH]c3ccccc23)NC(=O)[C@H](Cc2c[nH]c3ccccc23)NC(=O)[C@H](Cc2c[nH]c3ccccc23)NC(=O)[C@H](Cc2c[nH]c3ccccc23)NC(=O)[C@H](CCCNC(=N)N)NC(=O)[C@H](CCCNC(=N)N)NC1=O [IFX-318, [R6W4]] (cyclo(RRRRRRWWWW))
Escherichia coli (ATCC 25922) MIC [1]: 32 µg/mL
FIC peptides (MRSA (ATCC BAA-1556); [16]): FIC = 2 μg/ml
FIC peptides [5, 16]: FIC = 16 μg/ml
Klebsiella pneumoniae (ATCC BAA-1705) MIC [3]: 64 µg/mL
FIC peptides [6, 16]: FIC = 4 ug/ml
FIC peptides [7, 16]: FIC = 8 μg/ml

N=C(N)NCCC[C@@H]1NC(=O)[C@H](CCCNC(=N)N)NC(=O)[C@H](CCCNC(=N)N)NC(=O)[C@H](CCCNC(=N)N)NC(=O)[C@@H](NC(=O)[C@H](Cc2c[nH]c3ccccc23)NC(=O)[C@H](Cc2c[nH]c3ccccc23)NC(=O)[C@H](Cc2c[nH]c3ccccc23)NC(=O)[C@@H](N)Cc2c[nH]c3ccccc23)CSSC[C@@H](C(=O)O)NC1=O [IFX-334] (H-WWWWCRRRRC-OH; disulfide 5-10)
E. coli (ATCC 25922) MIC [8]: 32 µg/mL
KPC (ATCC BAA-1705) MIC [9]: 256 µg/mL
MRSA (ATCC BAA-1556) MBC [10]: 64 µg/mL
PSA (ATCC 27883) MBC [11]: 256 µg/mL
E. coli (ATCC 25922) MBC [12]: 64 µg/mL
PSA (ATCC 27883 MIC) [13]: 256 µg/mL
MRSA (ATCC BAA-1556) MIC [14]: 32 µg/mL

N=C(N)NCCC[C@@H]1NC(=O)[C@H](CCCNC(=N)N)NC(=O)[C@H](CCCNC(=N)N)NC(=O)[C@H](Cc2c[nH]c3ccccc23)NC(=O)[C@H](Cc2c[nH]c3ccccc23)NC(=O)[C@H](Cc2c[nH]c3ccccc23)NC(=O)[C@H](Cc2c[nH]c3ccccc23)NC(=O)[C@H](CCCNC(=N)N)NC(=O)[C@H](CCCNC(=N)N)NC1=O [IFX-301, [R5W4]]
Adrenal glands/Body Coefficient [15, 17]: 0.03%
Heart/Body Coefficient [15, 17]: 0.57%
Kidneys/Body Coefficient [15, 17]: 2.15%
Liver/Body Coefficient [15, 17]: 8.64%
Lung/Body Coefficient [15, 17]: 1.00%
Spleen/Body Coefficient [15, 17]: 0.46%
Testes/Body Coefficient [15, 17]: 0.62%
Thymus/Body Coefficient [15, 17]: 0.31%
Heart/Body Coefficient [15, 18]: 0.49%
Kidneys/Body Coefficient [15, 18]: 2.06%
Liver/Body Coefficient [15, 18]: 8.27%
Lung/Body Coefficient [15, 18]: 0.72%
Spleen/Body Coefficient [15, 18]: 0.68%
Testes/Body Coefficient [15, 18]: 0.69%
Thymus/Body Coefficient [15, 18]: 0.25%
Adrenal glands/Body Coefficient [15, 19]: 0.04%
Average Body Weight before Necropsy [15, 19]: 25 g
Brain/Body Coefficient [15, 19]: 1.77%
Heart/Body Coefficient [15, 19]: 0.51%
Kidneys/Body Coefficient [15, 19]: 1.46%
Liver/Body Coefficient [15, 19]: 6.51%
Lung/Body Coefficient [15, 19]: 0.89%
Ovaries/Body Coefficient [15, 19]: 0.08%
Spleen/Body Coefficient [15, 19]: 0.60%
Thymus/Body Coefficient [15, 19]: 0.48%
Adrenal glands/Body Coefficient [15, 20]: 0.05%
Average Body Weight before Necropsy [15, 20]: 23 g
Heart/Body Coefficient [15, 20]: 0.53%
Kidneys/Body Coefficient [15, 20]: 1.73%
Liver/Body Coefficient [15, 20]: 7.85%
Lung/Body Coefficient [15, 20]: 1.13%
Ovaries/Body Coefficient [15, 20]: 0.09%
Spleen/Body Coefficient [15, 20]: 0.64%
Thymus/Body Coefficient [15, 20]: 0.49%
Adrenal glands/Body Coefficient [15, 21]: 0.03%
Average Body Weight before Necropsy [15, 21]: 21 g
Heart/Body Coefficient [15, 21]: 0.49%
Kidneys/Body Coefficient [15, 21]: 1.84%
Liver/Body Coefficient [15, 21]: 7.82%
Lung/Body Coefficient [15, 21]: 0.75%
Ovaries/Body Coefficient [15, 21]: 0.08%
Spleen/Body Coefficient [15, 21]: 0.81%
Thymus/Body Coefficient [15, 21]: 0.35%
Average Body Weight ([15]; ICR mice, IP, 10 mg/kg, Day 1): 21 g
Average Body Weight ([15]; ICR mice, IP, 10 mg/kg, Day 2): 21 g
Average Body Weight Growth Rate ([15]; ICR mice, IP, 10 mg/kg, Day 2): 3.23%
Average Body Weight ([15]; ICR mice, IP, 10 mg/kg, Day 3): 22 g
Average Body Weight Growth Rate ([15]; ICR mice, IP, 10 mg/kg, Day 3): 4.84%
Average Body Weight ([15]; ICR mice, IP, 10 mg/kg, Day 4): 23 g
Average Body Weight Growth Rate ([15]; ICR mice, IP, 10 mg/kg, Day 4): 11.29%
Average Body Weight ([15]; ICR mice, IP, 10 mg/kg, Day 5): 24 g
Average Body Weight Growth Rate ([15]; ICR mice, IP, 10 mg/kg, Day 5): 16.13%
Average Body Weight ([15]; ICR mice, IP, 10 mg/kg, Day 6): 24 g
Average Body Weight Growth Rate ([15]; ICR mice, IP, 10 mg/kg, Day 6): 16.13%
Average Body Weight ([15]; ICR mice, IP, 10 mg/kg, Day 7): 24 g
Average Body Weight Growth Rate ([15]; ICR mice, IP, 10 mg/kg, Day 7): 17.74%
Average Body Weight ([15]; ICR mice, IP, 10 mg/kg, Day 8): 25 g
Average Body Weight Growth Rate ([15]; ICR mice, IP, 10 mg/kg, Day 8): 20.97%
clinical observation ([15]; mouse, in vivo): did not show any abnormalities
Average Body Weight before Necropsy ([15]; mouse, in vivo, ip, 10 mg/kg): 27 g
Average Body Weight before Necropsy ([15]; mouse, in vivo, ip, 25 mg/kg): 26 g
Average Body Weight before Necropsy ([15]; mouse, in vivo, ip, 50 mg/kg): 26 g
Pseudomonas aeruginosa (ATCC 27883) MIC [2]: 32 µg/mL
MIC (peptide) (MRSA (ATCC BAA-1556); Table 25, peptide alone): MIC = 4 ug/ml
FIC (peptide) (MRSA (ATCC BAA-1556); [22]): FIC = 1 ug/ml
MIC (peptide) ([5]; Table 25, peptide alone): MIC = 32 ug/ml
FIC (peptide) [5, 22]: FIC = 8 ug/ml
MRSA (ATCC BAA-1556) MIC [4]: 4 µg/mL
MIC (peptide) ([6]; Table 25, peptide alone): MIC = 32 ug/ml
FIC (peptide) [6, 22]: FIC = 8 ug/ml
MIC (peptide) ([7]; Table 25, peptide alone): MIC = 16 ug/ml
FIC (peptide) [7, 22]: FIC = 4 ug/ml
